According to patent US6469026B2, “Isoquinolone inhibitors of factor Xa” (Millennium Pharmaceuticals, Inc., priority 2000, dated 2002):

Tests used:
factor Xa = factor Xa (Homo sapiens, UniProt P00742); experiment: factor Xa amidolytic assay (XA); assay type: biochemical; conditions: substrate S-2765, 5 min preincubation, room temperature, pH 7.5
Procedure: (§1) The compounds of the present invention are dissolved in buffer to give solutions containing concentrations such that assay concentrations range from 0 to 100 μM. In the assays for thrombin, prothrombinase and factor Xa, a synthetic chromogenic substrate is added to a solution containing test compound and the enzyme of interest and the residual catalytic activity of that enzyme is detennined spectrophotometrically. The IC50 of a compound is determined from the substrate turnover. The IC50 is the concentration of test compound giving 50% inhibition of the substrate turnover.
(§2) The factor Xa and thrombin assays were performed at room temperature, in 0.02 M TrisHCl buffer, pH 7.5, containing 0.15 M NaCl. The rates of hydrolysis of the para-nitroanilide substrate S-2765 (Chromogenix) for factor Xa, and the substrate Chromozym TH (Boehringer Mannheim) for thrombin following preincubation of the enzyme with inhibitor for 5 minutes at room temperature, and were determined using the Softmax 96-well plate reader (Molecular Devices), monitored at 405 nm to measure the time dependent appearance of p-nitroaniline.

thrombin = molecular target: T1, thrombin (Homo sapiens, UniProt P00734); experiment: thrombin amidolytic assay (IIA); assay type: biochemical; conditions: substrate Chromozym TH, 5 min preincubation, room temperature, pH 7.5
T1 construct: proteolytic cleavage of its precursor prothrombin at the Arg-Thr linkage at positions 271-272 and the Arg-Ile linkage at positions 320-321
Procedure: as §1, with “The compounds of the present invention are dissolved in buffer to give solutions containing concentrations such that assay concentrations range from 0 to 100 μM.” left out
as §2

factor Xa, sequence (P00742 235-488 limits assumed): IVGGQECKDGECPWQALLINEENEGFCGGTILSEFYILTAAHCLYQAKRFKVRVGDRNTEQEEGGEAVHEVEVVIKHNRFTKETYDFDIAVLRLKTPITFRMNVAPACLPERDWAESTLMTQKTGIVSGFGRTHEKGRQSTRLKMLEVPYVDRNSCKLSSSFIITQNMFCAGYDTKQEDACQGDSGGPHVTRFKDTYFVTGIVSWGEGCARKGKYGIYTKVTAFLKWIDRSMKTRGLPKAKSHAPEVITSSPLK
factor Xa, sequence (P00742 41-179 partner limits assumed): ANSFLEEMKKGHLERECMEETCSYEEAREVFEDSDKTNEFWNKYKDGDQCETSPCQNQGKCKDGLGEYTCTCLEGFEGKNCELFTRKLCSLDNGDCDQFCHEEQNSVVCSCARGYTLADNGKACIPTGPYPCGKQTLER

SMILES | IC50 (factor Xa) [nM] | IC50 (thrombin) [nM]
CC(=N)N1CCC(Oc2ccc3c(c2)CCN(C(Cc2cccc(C(=N)N)c2)C(=O)NC(C)(C)C)C3=O)CC1 (centres unmarked) [Example 13] | 993 | 35900
COC(=O)C(Cc1ccc2ccc(C(=N)N)cc2c1)N1CCc2cc(OC3CCN(C(=N)N)CC3)ccc2C1=O (centres unmarked) [Example 16] | 693 | 228000
N=C(N)c1cccc(CC(C(=O)O)N2CCc3cc(OC4CCN(C(=N)N)CC4)ccc3C2=O)c1 (centres unmarked) [Example 15] | 794 | –
CC(=N)N1CCC(Oc2ccc3c(c2)CCN(C(Cc2cccc(C(=N)N)c2)C(=O)O)C3=O)CC1 (centres unmarked) [Example 14] | 810 | –
CC(=N)N1CCC(Oc2ccc3c(c2)CCN(C(Cc2ccc4ccc(C(=N)N)cc4c2)C(=O)O)C3=O)CC1 (centres unmarked) [Example 17] | 348 | –

Molecules with a lower IC50 (factor Xa), results first:

IC50 (factor Xa) [nM] | IC50 (thrombin) [nM] | SMILES
152 | 402000 | COC(=O)C(Cc1cccc(C(=N)N)c1)N1CCc2cc(OC3CCN(C(=N)N)CC3)ccc2C1=O (centres unmarked) [Example 21]
258 | 119000 | CC(=N)N1CCC(Oc2ccc3c(c2)CCN(C(Cc2ccc4ccc(C(=N)N)cc4c2)C(=O)OC(C)(C)C)C3=O)CC1 (centres unmarked) [Example 19]
282 | – | N=C(N)c1ccc2ccc(CC(C(=O)O)N3CCc4cc(OC5CCN(C(=N)N)CC5)ccc4C3=O)cc2c1 (centres unmarked) [Example 18]
168 | 101000 | CC(C)(C)OC(=O)C(Cc1ccc2ccc(C(=N)N)cc2c1)N1CCc2cc(OC3CCN(C(=N)N)CC3)ccc2C1=O (centres unmarked) [Example 20]
47.5 | 233000 | CC(C)(C)OC(=O)C(Cc1cccc(C(=N)N)c1)N1CCc2cc(OC3CCN(C(=N)N)CC3)ccc2C1=O (centres unmarked) [Example 23]
129 | 393000 | COC(=O)C(Cc1cccc(C(=N)N)c1)N1CCc2cc(OC3CCN(C(C)=N)CC3)ccc2C1=O (centres unmarked) [Example 22]
22.1 | 150000 | CC(=N)N1CCC(Oc2ccc3c(c2)CCN(C(Cc2cccc(C(=N)N)c2)C(=O)OC(C)(C)C)C3=O)CC1 (centres unmarked) [Example 24]
